Values joined by “and” are separate entries in the source; they are usually repeats but may differ in a detail not shown here. Equal values may be shown once.
Tested on: DMS-114 complex spheroids with HUVEC/MSC, growth % test/control
Experiment: Anticancer human tumor DMS-114 cell line growth inhibition [AhR];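 also: spheroids exposed to agents for 7 days before readout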;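 as to viability, T/C: 100% = DMSO vehicle control wells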
Conditions: for viability, T/C: stronger effect = lower value
Summary of the method: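 Agents were dosed in half-log steps down from roughly clinical Cmax, or from 10 microM where Cmax was unknown, alone and with AhR antagonists. Read-out: percent test/control growth of tumor spheroids containing HUVEC and MSC stromal cells.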

[1] = curve of first compound, second compound 0.1 µM
[2] = curve of first compound, second compound 0.316 µM
[3] = curve of first compound, second compound 1 µM
[4] = curve of first compound, second compound 3.16 µM
[5] = curve of first compound, second compound 10 µM
[6] = second compound 0.1 µM, first compound 0.00316 µM
[7] = second compound 0.1 µM, first compound 0.01 µM
[8] = second compound 0.1 µM, first compound 0.0316 µM
[9] = second compound 0.1 µM, first compound 0.1 µM
[10] = second compound 0.1 µM, first compound 0.316 µM
[11] = second compound 0.1 µM, first compound 1 µM
[12] = second compound 0.316 µM, first compound 0.00316 µM
[13] = second compound 0.316 µM, first compound 0.01 µM
[14] = second compound 0.316 µM, first compound 0.0316 µM
[15] = second compound 0.316 µM, first compound 0.1 µM
[16] = second compound 0.316 µM, first compound 0.316 µM
[17] = second compound 0.316 µM, first compound 1 µM
[18] = second compound 1 µM, first compound 0.00316 µM
[19] = second compound 1 µM, first compound 0.01 µM
[20] = second compound 1 µM, first compound 0.0316 µM
[21] = second compound 1 µM, first compound 0.1 µM
[22] = second compound 1 µM, first compound 0.316 µM
[23] = second compound 1 µM, first compound 1 µM
[24] = second compound 3.16 µM, first compound 0.00316 µM
[25] = second compound 3.16 µM, first compound 0.01 µM
[26] = second compound 3.16 µM, first compound 0.0316 µM
[27] = second compound 3.16 µM, first compound 0.1 µM
[28] = second compound 3.16 µM, first compound 0.316 µM
[29] = second compound 3.16 µM, first compound 1 µM
[30] = second compound 10 µM, first compound 0.00316 µM
[31] = second compound 10 µM, first compound 0.01 µM
[32] = second compound 10 µM, first compound 0.0316 µM
[33] = second compound 10 µM, first compound 0.1 µM
[34] = second compound 10 µM, first compound 0.316 µM
[35] = second compound 10 µM, first compound 1 µM

## Nc1ncn(C2CC(O)C(CO)O2)c(=O)n1 (stereo not drawn) + Cc1ccccc1N=Nc1ccc(NC(=O)c2ccnn2C)c(C)c1
[1]
  IC50: > 1000 nM
[2]
  IC50: > 1000 nM
[3]
  IC50: > 1000 nM
[4]
  IC50: > 1000 nM
[5]
  IC50: > 1000 nM
[6]
  viability, T/C: 111%
[7]
  viability, T/C: 105%
[8]
  viability, T/C: 103%
[9]
  viability, T/C: 117%
[10]
  viability, T/C: 104%
[11]
  viability, T/C: 105%
[12]
  viability, T/C: 103%
[13]
  viability, T/C: 95.4%
[14]
  viability, T/C: 104%
[15]
  viability, T/C: 113%
[16]
  viability, T/C: 96.3%
[17]
  viability, T/C: 104%
[18]
  viability, T/C: 109%
[19]
  viability, T/C: 104%
[20]
  viability, T/C: 108%
[21]
  viability, T/C: 101%
[22]
  viability, T/C: 95.4%
[23]
  viability, T/C: 106%
[24]
  viability, T/C: 115%
[25]
  viability, T/C: 96.2%
[26]
  viability, T/C: 95.7%
[27]
  viability, T/C: 99.8%
[28]
  viability, T/C: 99.7%
[29]
  viability, T/C: 97.7%
[30]
  viability, T/C: 98.8%
[31]
  viability, T/C: 98.1%
[32]
  viability, T/C: 92.1%
[33]
  viability, T/C: 91%
[34]
  viability, T/C: 105%
[35]
  viability, T/C: 87.6%

## Cn1ncnc1C1c2n[nH]c(=O)c3cc(F)cc(c23)NC1c1ccc(F)cc1 (stereo not drawn)
Compound 0.000316 µM
  viability, T/C: 100% and 96.9% and 109%
Compound 0.001 µM
  viability, T/C: 98.4% and 102% and 98%
Compound 0.00316 µM
  viability, T/C: 95.9% and 96.9% and 99.1%
Compound 0.01 µM
  viability, T/C: 96% and 100% and 99.3%
Compound 0.0316 µM
  viability, T/C: 93.1% and 107% and 99.9%
Compound 0.1 µM
  viability, T/C: 76.3% and 101% and 86.2%
Curve of compound
  IC50: > 100 nM

## O=C(C=Cc1cccc(S(=O)(=O)Nc2ccccc2)c1)NO + CC(CO)NC(=O)c1cc(-c2ccc(Cl)cc2)nn(-c2cnn(C)c2)c1=O
[1]
  IC50: 406 nM
[2]
  IC50: 381 nM
[3]
  IC50: 459 nM
[4]
  IC50: 543 nM
[5]
  IC50: 482 nM
[8]
  viability, T/C: 75.9%
[9]
  viability, T/C: 77.6%
[10]
  viability, T/C: 55.1%
[11]
  viability, T/C: 27.2%
Second compound 0.1 µM, first compound 3.16 µM
  viability, T/C: 13.3%
Second compound 0.1 µM, first compound 10 µM
  viability, T/C: 11.9%
[14]
  viability, T/C: 77.6%
[15]
  viability, T/C: 78.3%
[16]
  viability, T/C: 53.2%
[17]
  viability, T/C: 26.2%
Second compound 0.316 µM, first compound 3.16 µM
  viability, T/C: 11.3%
Second compound 0.316 µM, first compound 10 µM
  viability, T/C: 12.4%
[20]
  viability, T/C: 84.6%
[21]
  viability, T/C: 81.2%
[22]
  viability, T/C: 61.1%
[23]
  viability, T/C: 26.9%
Second compound 1 µM, first compound 3.16 µM
  viability, T/C: 11.1%
Second compound 1 µM, first compound 10 µM
  viability, T/C: 13.5%
[26]
  viability, T/C: 82%
[27]
  viability, T/C: 76.9%
[28]
  viability, T/C: 68.1%
[29]
  viability, T/C: 29.9%
Second compound 3.16 µM, first compound 3.16 µM
  viability, T/C: 12.4%
Second compound 3.16 µM, first compound 10 µM
  viability, T/C: 12.3%
[32]
  viability, T/C: 90.6%
[33]
  viability, T/C: 68.2%
[34]
  viability, T/C: 64.6%
[35]
  viability, T/C: 35%
Second compound 10 µM, first compound 3.16 µM
  viability, T/C: 13.8%
Second compound 10 µM, first compound 10 µM
  viability, T/C: 14.5%

## CC(C)CC(NC(=O)C(Cc1ccccc1)NC(=O)c1cnccn1)B(O)O (stereo not drawn)
Compound 0.000949 µM
  viability, T/C: 98.7% and 95% and 101%
Compound 0.003 µM
  viability, T/C: 109% and 105% and 66.2%
Compound 0.00949 µM
  viability, T/C: 1.7% and 11.6% and 1.54%
Compound 0.03 µM
  viability, T/C: 0.16% and 0.44% and 0.39%
Compound 0.0949 µM
  viability, T/C: 0.13% and 0.38% and 0.33%
Compound 0.3 µM
  viability, T/C: 0.21% and 0.32% and 0.4%
Curve of compound
  IC50: 5.51 nM and 5.76 nM and 4 nM

## CC[C@@]1(O)C(=O)OCc2c1cc1n(c2=O)Cc2cc3c(CN(C)C)c(O)ccc3nc2-1 + Cc1ccccc1N=Nc1ccc(NC(=O)c2ccnn2C)c(C)c1
[1]
  IC50: 61.1 nM
[2]
  IC50: 65.1 nM
[3]
  IC50: 71.2 nM
[4]
  IC50: 74.1 nM
[5]
  IC50: 61.2 nM
Second compound 0.1 µM, first compound 0.000316 µM
  viability, T/C: 99.3%
Second compound 0.1 µM, first compound 0.001 µM
  viability, T/C: 102%
[6]
  viability, T/C: 97.8%
[7]
  viability, T/C: 88.6%
[8]
  viability, T/C: 66.2%
[9]
  viability, T/C: 38%
Second compound 0.316 µM, first compound 0.000316 µM
  viability, T/C: 95%
Second compound 0.316 µM, first compound 0.001 µM
  viability, T/C: 106%
[12]
  viability, T/C: 100%
[13]
  viability, T/C: 102%
[14]
  viability, T/C: 61.7%
[15]
  viability, T/C: 43%
Second compound 1 µM, first compound 0.000316 µM
  viability, T/C: 99.2%
Second compound 1 µM, first compound 0.001 µM
  viability, T/C: 92.3%
[18]
  viability, T/C: 99.6%
[19]
  viability, T/C: 94%
[20]
  viability, T/C: 65%
[21]
  viability, T/C: 43.7%
Second compound 3.16 µM, first compound 0.000316 µM
  viability, T/C: 89.2%
Second compound 3.16 µM, first compound 0.001 µM
  viability, T/C: 92.1%
[24]
  viability, T/C: 93.2%
[25]
  viability, T/C: 83.4%
[26]
  viability, T/C: 68.5%
[27]
  viability, T/C: 43.5%
Second compound 10 µM, first compound 0.000316 µM
  viability, T/C: 91.8%
Second compound 10 µM, first compound 0.001 µM
  viability, T/C: 92.2%
[30]
  viability, T/C: 92.1%
[31]
  viability, T/C: 87.6%
[32]
  viability, T/C: 58%
[33]
  viability, T/C: 44.1%

## COc1cc(Nc2ncc3c(n2)-c2ccc(Cl)cc2C(c2c(F)cccc2OC)=NC3)ccc1C(=O)O
Compound 0.0316 µM
  viability, T/C: 24.8% and 65.8% and 25.6%
Compound 0.1 µM
  viability, T/C: 24.5% and 56.9% and 27.2%
Compound 0.316 µM
  viability, T/C: 40% and 108% and 56%
Compound 1 µM
  viability, T/C: 65.1% and 114% and 79%
Compound 3.16 µM
  viability, T/C: 64% and 116% and 85.6%
Compound 10 µM
  viability, T/C: 74.5% and 104% and 61.2%

## CC(CO)NC(=O)c1cc(-c2ccc(Cl)cc2)nn(-c2cnn(C)c2)c1=O (stereo not drawn)
Compound 0.1 µM
  viability, T/C: 98.2% [middle of 20 runs]
Compound 1 µM
  viability, T/C: 95.8% [middle of 21 runs]
Compound alone, run of 07/12/2022
  IC50: > 10000 nM

## CC(C)CC(NC(=O)C(Cc1ccccc1)NC(=O)c1cnccn1)B(O)O (stereo not drawn) + CC(CO)NC(=O)c1cc(-c2ccc(Cl)cc2)nn(-c2cnn(C)c2)c1=O
[1]
  IC50: 3.61 nM
[2]
  IC50: 4.04 nM
[3]
  IC50: 3.33 nM
[4]
  IC50: 3.29 nM
[5]
  IC50: 4.34 nM
Second compound 0.1 µM, first compound 0.000949 µM
  viability, T/C: 100%
Second compound 0.1 µM, first compound 0.003 µM
  viability, T/C: 59.4%
Second compound 0.1 µM, first compound 0.00949 µM
  viability, T/C: 0.72%
Second compound 0.1 µM, first compound 0.03 µM
  viability, T/C: 0.35%
Second compound 0.1 µM, first compound 0.0949 µM
  viability, T/C: 0.11%
Second compound 0.1 µM, first compound 0.3 µM
  viability, T/C: 0.29%
Second compound 0.316 µM, first compound 0.000949 µM
  viability, T/C: 95.5%
Second compound 0.316 µM, first compound 0.003 µM
  viability, T/C: 66.8%
Second compound 0.316 µM, first compound 0.00949 µM
  viability, T/C: 1.94%
Second compound 0.316 µM, first compound 0.03 µM
  viability, T/C: 0.05%
Second compound 0.316 µM, first compound 0.0949 µM
  viability, T/C: 0.3%
Second compound 0.316 µM, first compound 0.3 µM
  viability, T/C: 0.42%
Second compound 1 µM, first compound 0.000949 µM
  viability, T/C: 113%
Second compound 1 µM, first compound 0.003 µM
  viability, T/C: 54.8%
Second compound 1 µM, first compound 0.00949 µM
  viability, T/C: 1.26%
Second compound 1 µM, first compound 0.03 µM
  viability, T/C: 0.32%
Second compound 1 µM, first compound 0.0949 µM
  viability, T/C: 0.11%
Second compound 1 µM, first compound 0.3 µM
  viability, T/C: 0.25%
Second compound 3.16 µM, first compound 0.000949 µM
  viability, T/C: 85.7%
Second compound 3.16 µM, first compound 0.003 µM
  viability, T/C: 54.4%
Second compound 3.16 µM, first compound 0.00949 µM
  viability, T/C: 0.8%
Second compound 3.16 µM, first compound 0.03 µM
  viability, T/C: 0.07%
Second compound 3.16 µM, first compound 0.0949 µM
  viability, T/C: 0.76%
Second compound 3.16 µM, first compound 0.3 µM
  viability, T/C: 0.17%
Second compound 10 µM, first compound 0.000949 µM
  viability, T/C: 99%
Second compound 10 µM, first compound 0.003 µM
  viability, T/C: 72.8%
Second compound 10 µM, first compound 0.00949 µM
  viability, T/C: 1.52%
Second compound 10 µM, first compound 0.03 µM
  viability, T/C: 0.2%
Second compound 10 µM, first compound 0.0949 µM
  viability, T/C: 0.15%
Second compound 10 µM, first compound 0.3 µM
  viability, T/C: 0.26%

Source: PubChem BioAssay AID1919008 (Molecular Pharmacology Branch, DTP, NCI, 2023)
